Where two headings read alike, the source gives them in different places.

Results on three compounds are retold here after paper PMC8291587, “Guanidine Derivatives: How Simple Structural Modification of Histamine H3R Antagonists Has Led to the Discovery of Potent Muscarinic M2R/M4R Antagonists” (ACS Chemical Neuroscience, 2021).

In assay [1] the target is T1, hM4R (Homo sapiens, UniProt P08173).
T1 construct: host or cells: CHO cells, stably transfected; crude membranes
T1 sequence (P08173 1-479): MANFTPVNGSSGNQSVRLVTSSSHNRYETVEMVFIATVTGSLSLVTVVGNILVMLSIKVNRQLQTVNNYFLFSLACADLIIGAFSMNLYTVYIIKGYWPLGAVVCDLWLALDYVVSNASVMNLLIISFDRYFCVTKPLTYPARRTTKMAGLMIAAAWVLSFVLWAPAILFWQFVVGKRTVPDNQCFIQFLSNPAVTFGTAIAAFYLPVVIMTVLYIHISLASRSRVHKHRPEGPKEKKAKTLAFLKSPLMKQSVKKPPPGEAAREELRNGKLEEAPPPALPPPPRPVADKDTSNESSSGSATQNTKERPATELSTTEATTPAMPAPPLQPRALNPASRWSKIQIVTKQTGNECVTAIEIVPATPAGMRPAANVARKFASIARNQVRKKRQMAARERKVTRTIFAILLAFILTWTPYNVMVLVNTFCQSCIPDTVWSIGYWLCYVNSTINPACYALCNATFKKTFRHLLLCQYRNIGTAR
The assay can be described thus: hM4R radioligand binding ([3H]NMS, CHO cell membranes). How it is done: (§1) To clearly explain the obtained outcome, we engaged the radioligand binding experiment. The hM1–hM5 radioligand binding experiments were performed in the membrane fractions of Chinese hamster ovary cells (CHO) stably expressing human variants of muscarinic receptors. N-[^3H]Methylscopolamine was used as the radiolabeled ligand.[39] Three compounds were selected from ex vivo screening on guinea pig ileum. […] This compound is also not completely selective for the remaining muscarinic receptor subtypes with −log Ki values over 6. […] It is also a potent muscarinic M1R antagonist, and the M1R/M2R selectivity ratio is <10. It is worth noting that such nonspecific anticholinergics are often associated with neuropsychiatric and cognitive disturbances and that nonselective muscarinic M1R/M2R antagonists, such as scopolamine, can produce cognitive deficits. Further structural modifications of ADS10227 should be used to increase selectivity toward the M2R, as these may present fewer potential side effects associated with the activation of the phospholipase C signaling pathway.
(§2) The culture was derived from CHO cells stably transfected with the genes of human variants of muscarinic receptors. These were purchased from Missouri S&T cDNA Resource Center (Rolla, MO, USA). Cell cultures and crude membranes were prepared as described previously.[45] […]
(§3) All radioligand binding experiments were optimized and carried out according to general guidelines.[39] […] N-Methylscopolamine binding was measured directly in saturation experiments using six concentrations (30–1000 pM) of [^3H]NMS during incubation for 1 h (M2R), 3 h (M1R, M3R, and M4R), or 5 h (M5R). For calculations of the equilibrium dissociation constant (KD), concentrations of free [^3H]NMS were calculated by subtraction of bound radioactivity from total radioactivity in the sample and fitting eq 1 (Experimental Data analysis section). The binding of the tested ligands was determined in competition experiments with 100 pM [^3H]NMS. […] Nonspecific binding was determined in the presence of 1 μM unlabeled atropine. […]

Assay [2] deals with T2, hM5R (Homo sapiens, UniProt P08912).
T2 construct: host or cells: CHO cells, stably transfected; crude membranes
T2 sequence (P08912 1-532): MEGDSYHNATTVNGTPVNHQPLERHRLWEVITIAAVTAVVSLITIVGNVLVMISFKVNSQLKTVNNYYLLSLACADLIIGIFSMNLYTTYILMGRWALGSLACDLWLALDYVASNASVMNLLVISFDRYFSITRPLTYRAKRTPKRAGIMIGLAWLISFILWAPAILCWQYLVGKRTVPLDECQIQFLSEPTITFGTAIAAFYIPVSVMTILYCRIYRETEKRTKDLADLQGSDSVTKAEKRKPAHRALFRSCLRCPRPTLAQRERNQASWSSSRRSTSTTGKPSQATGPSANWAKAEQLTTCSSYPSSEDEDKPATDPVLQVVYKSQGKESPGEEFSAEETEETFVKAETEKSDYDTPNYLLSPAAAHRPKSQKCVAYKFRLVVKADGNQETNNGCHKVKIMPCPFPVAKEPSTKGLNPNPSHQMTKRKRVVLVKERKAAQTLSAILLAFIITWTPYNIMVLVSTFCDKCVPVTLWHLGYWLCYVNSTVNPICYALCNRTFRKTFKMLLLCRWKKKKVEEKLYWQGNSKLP
The assay can be described thus: hM5R radioligand binding ([3H]NMS, CHO cell membranes). The procedure:
as §1, §2, §3

The mark [3] stands for this setting: read-out: hM5R -log(Ki) ± sem (converted).

For the compound `N=C(N)N(CCCCN1CCN(CCCCCCCOc2ccccc2)CC1)Cc1ccccc1` [ADS1017], the Ki in assay [1] was 68 nM; in assay [2] (hM5R -log(Ki) ± sem), 468 nM.
`N=C(N)N(CCCCN1CCN(C[C@H]2CC[C@@H](COc3ccccc3)CC2)CC1)Cc1ccccc1` [ADS10227, 1-{4-{4-{[4-(phenoxymethyl)cyclohexyl]methyl}piperazin-1-yl}but-1-yl}-1-(benzyl)guanidine]: the Ki was 5.1 nM in assay [1] ([3H]NMS, CHO membranes, read-out: affinity to hM4R (Ki)) and 195 nM in assay [2] (setting [3]).
Take `[H]/N=C(/N)N(CCCCN1CCN(CC2CCC(COc3ccccc3)CC2)CC1)Cc1ccc(C(F)(F)F)cc1` (stereo not drawn) [ADS10239]: the inhibition constant (Ki) in assay [1] ([3H]NMS, CHO membranes, read-out: hM4R -log(Ki) ± sem (converted)) was 15.1 nM; in assay [2] (setting [3]), 832 nM.

One may read the Ki as a dissociation constant, usually derived from enzyme kinetics or from competition with a known ligand.
